From PubChem BioAssay (NCI)
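All cell lines were grown in 96-well plates and treated with compound for 48 hours. Abbreviation: GI50, concentration required for 50% inhibition of growth. The concentration for full growth arrest is given as TGI.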 Where a SMILES comes first, the peptide text is derived from it. [ ]: non-standard residue; d: D form. The star is where a group is joined. dTle = CC(C)(C)[C@@H](N)C(=O)O; 4Abz = Nc1ccc(C(=O)O)cc1; NHOH = ON*

Key:
Test in all cases: NCI-60 cell line screen, 48 h
DU-145 prostate = test system: DU-145 prostate
HCT-15 colon = test system: HCT-15 colon
MDA-MB-231 breast = test system: MDA-MB-231 breast
NCI-H226 lung = test system: NCI-H226 lung
MALME-3M melanoma = test system: MALME-3M melanoma
T-47D breast = test system: T-47D breast
HT29 colon = test system: HT29 colon
UO-31 renal = test system: UO-31 renal
OVCAR-3 ovarian = test system: OVCAR-3 ovarian
ACHN renal = test system: ACHN renal

| Compound | GI50 (DU-145 prostate) | TGI (DU-145 prostate) | GI50 (HCT-15 colon) | TGI (HCT-15 colon) | GI50 (MDA-MB-231 breast) | TGI (MDA-MB-231 breast) | GI50 (NCI-H226 lung) | TGI (NCI-H226 lung) | GI50 (MALME-3M melanoma) | TGI (MALME-3M melanoma) | GI50 (T-47D breast) | TGI (T-47D breast) | GI50 (HT29 colon) | TGI (HT29 colon) | GI50 (UO-31 renal) | TGI (UO-31 renal) | GI50 (OVCAR-3 ovarian) | TGI (OVCAR-3 ovarian) | GI50 (ACHN renal) | TGI (ACHN renal) |
| --- | --- | --- | --- | --- | --- | --- | --- | --- | --- | --- | --- | --- | --- | --- | --- | --- | --- | --- | --- | --- |
| CN(C)CCNc1c2ccccc2nc2oc3ccccc3c12 | 4350 nM | 17900 nM | 5040 nM | 25 µM | 6.47 µM | 27.2 µM | 8650 nM | 47.1 µM | 3730 nM | 17.6 µM | 4720 nM | 26.7 µM | 3970 nM | 19.6 µM | 4910 nM | 46900 nM | 8710 nM | 51 µM | 4480 nM | 25.8 µM |
| O=C(/C=C/C12c3ccccc3C(c3ccccc31)C1C(=O)NC(=O)C12)c1ccc(F)cc1 (stereo not given) | 1630 nM | 3000 nM | 1660 nM | 4.2 µM | 3.05 µM | 9.58 µM | 2740 nM | 9.51 µM | 1970 nM | 4.02 µM | 2520 nM | 8.13 µM | 2340 nM | 5.21 µM | 1420 nM | 2850 nM | 1700 nM | 3.15 µM | 2430 nM | 6.18 µM |
| C[C@@H](NC(=O)[C@H](NC(=O)[C@@H]1CCCN1C(=O)CNC(=O)c1ccc(N)cc1)C(C)(C)C)C(=O)NO (H-[4Abz]GP[dTle][dA]-{NHOH}) | > 100000 nM | > 100000 nM | > 100000 nM | > 100 µM | > 100 µM | > 100 µM | > 100000 nM | > 100 µM | > 100000 nM | > 100 µM | > 100000 nM | > 100 µM | > 100000 nM | > 100 µM | > 100000 nM | > 100000 nM | > 100000 nM | > 100 µM | > 100000 nM | > 100 µM |
| CCc1ccc(C(=Nc2ccc(N(C)C(=O)CN3CCN(C)CC3)cc2)c2c(O)[nH]c3ccc(C(=O)OC)cc23)cc1 | 528 nM | 1840 nM | 277 nM | 1.25 µM | 0.585 µM | 2.09 µM | 977 nM | 2.71 µM | 516 nM | 1.9 µM | 870 nM | 2.68 µM | 247 nM | 3.17 µM | 287 nM | 1360 nM | 538 nM | 1.96 µM | 332 nM | 1.43 µM |
